Measurements taken from patent US20030211545A1, “Treatment of neuropsychiatric disease with protease and neurominidase inhibitors” (priority 2002, published 2003).
“Also recorded” adds a separate entry of the source. Read-outs that look alike come from different tables or passages of the source.

Assays:
[1] = cited from earlier work
[2] = test system: N-CAM 180; assay: Incubation of human occipital cortex membrane and cytosolic fractions with protease inhibitors, N-CAM immunoblot; assay type: biochemical
Description: Fresh or frozen human brain cortex is dissected free of pia mater layer and any obvious blood vessels on the surface of the cortex. Pulverize the cortex in a sufficient quantity of liquid Nitrogen to a friable state with mortar and pestle, and accurately weigh out replicate samples of pulverized brain sample while keeping all vessels frozen in dry ice. Place the quantity of protease inhibitor or neuraminidase inhibitor in a PBS buffer of final pH 7.4 and maintain buffer on ice. Add the varying concentrations and combinations of protease inhibitors and/or neuraminidase inhibitors to separate pulverized brain in tubes in a final volume to yield a 20% weight of brain tissue/buffer volume. Allow the tubes to adjust to room temperature, and incubate at standard room temperature conditions for varying time points. The end-point of the assay is accomplished by addition of a 2× denaturing reducing sample buffer such as commercially available and previously published, and heat 3 min at 95 degrees C. Proceed to standard SDS-PAGE and immunoblot conditions to determine the breakdown products of parent molecule N-CAM. Use appropriate control incubations for temperature breakdown and buffer breakdown without protease inhibitors and/or neuraminidase inhibitors. The results can be quantitatively assessed by densitometry of immunoblots as previously published which yields a linear response within a loading range of proteins (˜1-100 μg of protein) depending on gel capacity used and concentrations of antibody and detection substrates which are empirically determined with standard methods. […]
Membrane and cytosolic fractions from human occipital cortex were incubated in the presence of protease inhibitors (10 μM final concentration) for varying lengths of time (typically 2, 4, 8, 16, 32, and 48 hrs at room temperature). An aliquot was analyzed by gel electrophoresis and immunoblotted with N-CAM 3732 antibody. […] The supernatant was labeled “membrane extract.” Protein content of the “cytosolic” and “membrane extract” sample was measured by the micro bicinchoninic acid method (Pierce, Ill.).

[3] = cited from earlier work; remark: listed apart in the source
[4] = test system: N-CAM 180; assay: Neuraminidase treatment of cytosolic and membrane brain extracts, N-CAM immunoblot; assay type: biochemical, human; settings: 1.25 U/ml diluted enzyme, 18 hrs at 37° C., FIG. 7A
Protocol: Membrane “extracts” and “cytosolic” tissue extracts of human occipital cortex were prepared as described^8 with slight modifications^9. Frozen pulverized occipital cortex ˜50 g was suspended in 1000 ml of cold 0.05M Tris buffered saline (TBS, pH 7.4) with protease inhibitors: antipain (4 μg/ml), pepstatin A (2 μg/ml), aprotinin (2 μg/ml), leupeptin (2 μg/ml), and phenyl methyl sulfonyl fluoride (0.1 μg/ml). The solution was homogenized (Tissumizer; Tekmar, Cincinnati Ohio) for 5×10 sec pulses in a 4° C. ice bath and 30 sec cooling interval between pulses. The homogenate was centrifuged for 30 min at 42,000×g at 4° C. The clear supernatant with visible lipid removed was the “cytosolic” fraction. The pellet was resuspended and washed with cold TBS-protease inhibitor cocktail and re-centrifuged at 42,000×g for 30 min at 4° C. […] The supernatant was labeled “membrane extract.” Protein content of the “cytosolic” and “membrane” sample was measured by the micro bicinchoninic acid method (Pierce, Ill.).
Neuraminidase treatment of cytosolic and membrane brain extracts was accomplished by using neuraminidase enzyme from Vibrio cholerae (˜2.49 Units/ml, Fluka) in pH 5.5, 0.15M NaCl, 4 mM CaCl2 that was diluted with 50 mM sodium acetate, 4 mM CaCl2 and 0.2 mM EDTA, (pH 5.0; Buffer A) to 1.25 U/ml. […] Samples were analyzed by immunoblot for N-CAM with antibody 3732. […]

## CC(C)CN(C[C@@H](O)[C@H](Cc1ccccc1)NC(=O)O[C@H]1CCOC1)S(=O)(=O)c1ccc(N)cc1 [Amprenavir]
[1]; high-fat meal
  effect of a high-fat meal on absorption of the drug: decrease the absorption
[1]; of recipients
  severe or life-threatening rash: 1%
[1]; of those who develop a rash
  severe or life-threatening rash: 4%
[1]; patients treated
  severe and life-threatening skin reactions, including Stevens-Johnson syndrome: 1%

## CC(=O)N[C@@H](CC(C)C)C(=O)N[C@@H](CC(C)C)C(=O)N[C@H](C=O)CCCNC(=N)N [leupeptin, Acetyl-leucyl-leucyl-arginal]
[2]; 10 μM final concentration, compared with the other protease inhibitors assayed individually
  activity in prevention of the breakdown of N-CAM 180 and subsequent release/accumulation of cN-CAM: most activity; also recorded: most effective
[2]; 10 μM, room temperature, over the course of 48 hr, FIG. 8B and C
  inhibition of the increase in cN-CAM: completely inhibited
[2]; assayed in human brain
  potency compared to the protease inhibitor cocktail: most potent

## Aprotinin
[3]; clinical trials
  tolerability in humans: generally well tolerated
[3]; patients receiving aprotinin for the first time
  hypersensitivity reactions: <0.1 to 0.6%

## neuraminidase: neuraminidase enzyme from Vibrio cholerae (Fluka)
[4]
  effect on N-CAM 180 in membrane extracts: removal of higher MW N-CAM 180
